From ChEMBL document CHEMBL6153147 (J Med Chem, 2025)

Experiments:
[1] = Selectivity ratio of IC50 for inhibition of human PLK3 using ATF2 as substrate to IC50 for inhibition of human PLK1 using ATF2 as substrate
[2] = target: Serine/threonine-protein kinase PLK2 (Homo sapiens, UniProt Q9NYY3); test: Inhibition of human PLK2 using ATF2 as substrate incubated for 40 mins in presence of [gamma-33P]ATP/Mg acetate by scintillation counting analysis
[3] = target: Serine/threonine-protein kinase PLK1 (Homo sapiens, UniProt P53350); test: Inhibition of human PLK1 using ATF2 as substrate incubated for 40 mins in presence of [gamma-33P]ATP/Mg acetate by scintillation counting analysis
[4] = target: Serine/threonine-protein kinase PLK3 (Homo sapiens, UniProt Q9H4B4); test: Inhibition of human PLK3 using ATF2 as substrate incubated for 40 mins in presence of [gamma-33P]ATP/Mg acetate by scintillation counting analysis
[5] = Selectivity ratio of IC50 for inhibition of human PLK2 using ATF2 as substrate to IC50 for inhibition of human PLK1 using ATF2 as substrate

Serine/threonine-protein kinase PLK2, sequence (Q9NYY3 whole entry): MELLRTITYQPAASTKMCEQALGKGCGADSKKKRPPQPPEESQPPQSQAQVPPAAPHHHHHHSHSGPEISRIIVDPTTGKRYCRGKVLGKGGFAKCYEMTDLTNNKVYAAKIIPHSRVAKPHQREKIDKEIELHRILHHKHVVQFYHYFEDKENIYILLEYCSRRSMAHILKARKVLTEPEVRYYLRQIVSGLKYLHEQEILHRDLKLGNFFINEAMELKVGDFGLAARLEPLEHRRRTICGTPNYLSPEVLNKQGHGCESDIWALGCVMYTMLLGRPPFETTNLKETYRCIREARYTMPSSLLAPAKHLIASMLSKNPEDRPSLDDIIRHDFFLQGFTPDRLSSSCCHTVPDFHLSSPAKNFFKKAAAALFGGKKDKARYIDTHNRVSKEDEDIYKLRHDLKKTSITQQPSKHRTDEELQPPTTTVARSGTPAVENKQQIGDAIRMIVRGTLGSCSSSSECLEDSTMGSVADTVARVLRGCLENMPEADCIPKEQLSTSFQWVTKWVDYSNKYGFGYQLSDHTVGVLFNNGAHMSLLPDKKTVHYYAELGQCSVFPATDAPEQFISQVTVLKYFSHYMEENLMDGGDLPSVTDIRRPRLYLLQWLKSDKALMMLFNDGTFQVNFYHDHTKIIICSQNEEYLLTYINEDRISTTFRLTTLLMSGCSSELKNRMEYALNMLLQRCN
Serine/threonine-protein kinase PLK3, sequence (Q9H4B4 whole entry): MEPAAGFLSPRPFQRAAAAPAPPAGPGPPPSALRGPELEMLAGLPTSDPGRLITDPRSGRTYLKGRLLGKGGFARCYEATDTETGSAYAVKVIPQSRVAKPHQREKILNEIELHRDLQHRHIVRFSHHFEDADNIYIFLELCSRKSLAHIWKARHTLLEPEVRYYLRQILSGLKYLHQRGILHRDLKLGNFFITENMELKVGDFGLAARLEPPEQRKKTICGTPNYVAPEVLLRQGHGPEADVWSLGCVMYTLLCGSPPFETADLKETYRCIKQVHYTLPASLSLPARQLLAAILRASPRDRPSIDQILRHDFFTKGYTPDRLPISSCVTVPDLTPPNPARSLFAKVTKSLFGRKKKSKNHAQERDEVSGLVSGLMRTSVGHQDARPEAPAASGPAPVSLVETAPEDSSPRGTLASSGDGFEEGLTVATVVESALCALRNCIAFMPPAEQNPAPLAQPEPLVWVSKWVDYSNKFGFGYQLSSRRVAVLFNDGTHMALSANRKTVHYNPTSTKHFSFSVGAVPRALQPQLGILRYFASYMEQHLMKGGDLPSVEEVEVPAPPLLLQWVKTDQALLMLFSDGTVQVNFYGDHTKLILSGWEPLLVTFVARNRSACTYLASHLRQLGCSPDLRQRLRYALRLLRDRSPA
Serine/threonine-protein kinase PLK1, sequence (P53350 whole entry): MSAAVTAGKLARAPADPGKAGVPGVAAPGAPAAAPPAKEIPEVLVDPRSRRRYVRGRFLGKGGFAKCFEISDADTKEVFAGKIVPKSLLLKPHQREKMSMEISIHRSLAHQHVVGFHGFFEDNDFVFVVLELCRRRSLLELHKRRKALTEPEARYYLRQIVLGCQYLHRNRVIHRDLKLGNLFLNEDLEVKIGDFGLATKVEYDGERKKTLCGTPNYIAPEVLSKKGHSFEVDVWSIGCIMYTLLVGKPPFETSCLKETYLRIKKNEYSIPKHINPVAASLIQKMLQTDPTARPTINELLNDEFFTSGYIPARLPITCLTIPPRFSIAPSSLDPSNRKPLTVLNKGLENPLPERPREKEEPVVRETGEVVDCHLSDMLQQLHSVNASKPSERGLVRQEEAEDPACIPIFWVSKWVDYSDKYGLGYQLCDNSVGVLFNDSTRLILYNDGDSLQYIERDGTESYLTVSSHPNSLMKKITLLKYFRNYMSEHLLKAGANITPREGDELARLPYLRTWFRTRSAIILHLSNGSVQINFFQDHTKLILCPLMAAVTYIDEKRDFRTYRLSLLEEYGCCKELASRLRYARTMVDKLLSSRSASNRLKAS

SMILES	ratio [1]	IC50 [2]	IC50 [3]	IC50 [4]	ratio [5]
CC[C@@H]1C(=O)N(C)c2cnc(Nc3cc(N4CCN(C(=O)OC(C)(C)C)CC4)ccc3OCCCO)nc2N1C1CCCC1	> 51	> 10000 nM	195 nM	> 10000 nM	> 51
CC[C@@H]1C(=O)N(C)c2cnc(Nc3cc(N4CCN(C)CC4)ccc3OCCO)nc2N1C(C)C	> 303	> 10000 nM	33 nM	> 10000 nM	> 303
CC[C@@H]1C(=O)N(C)c2cnc(Nc3cc(N4CCN(CC)CC4)cc(F)c3OC)nc2N1C1CCCC1	107	610 nM	12 nM	1290 nM	51
CC[C@@H]1C(=O)N(C)c2cnc(Nc3cc(N4CCN(C(=O)OC(C)(C)C)CC4)ccc3OCCO)nc2N1C1CCCC1	> 73	> 10000 nM	138 nM	> 10000 nM	> 73
CC[C@@H]1C(=O)N(C)c2cnc(Nc3cc(N4CCN(C)CC4)cc(Cl)c3OCCO)nc2N1C1CCNC1 (some centres not stated)			9250 nM		
CC[C@@H]1C(=O)N(C)c2cnc(Nc3cc(N4CCN(CC)CC4)cc(F)c3OCCO)nc2N1C1CCCC1	> 500	> 10000 nM	20 nM	> 10000 nM	> 500
CC[C@@H]1C(=O)N(C)c2cnc(Nc3cc(N4CCNCC4)ccc3OCCCO)nc2N1C(C)C	> 250	> 10000 nM	40 nM	> 10000 nM	> 250
CC[C@@H]1C(=O)N(C)c2cnc(Nc3cc(N4CCN(C)CC4)cc(Cl)c3OCCO)nc2N1C1CCCC1	576	7850 nM	11 nM	5760 nM	764
CC[C@@H]1C(=O)N(C)c2cnc(Nc3cc(N4CCN(C)CC4)cc(F)c3OC[C@H](C)O)nc2N1C(C)C	> 71	> 10000 nM	141 nM	> 10000 nM	> 71
CC[C@@H]1C(=O)N(C)c2cnc(Nc3cc(N4CCNCC4)ccc3OCCCO)nc2N1C1CCCC1	225	> 10000 nM	23 nM	5570 nM	> 435
CC[C@@H]1C(=O)N(C)c2cnc(Nc3cc(N4CCC(NC(=O)OC(C)(C)C)CC4)ccc3OCCO)nc2N1C1CCCC1	> 67.1	> 10000 nM	149 nM	> 10000 nM	> 67.1
CC[C@@H]1C(=O)N(C)c2cnc(Nc3cc(N4CCN(C)CC4)cc(Cl)c3OC)nc2N1C(C)C	221	5560 nM	18 nM	3990 nM	314
CC[C@@H]1C(=O)N(C)c2cnc(Nc3cc(N(C)CCN(C)C)cc(F)c3OCCCO)nc2N1C1CCCC1	72	5870 nM	20 nM	1460 nM	292
CC[C@@H]1C(=O)N(C)c2cnc(Nc3cc(N4CCN(CC)CC4)ccc3OCCO)nc2N1C1CCCC1	258	> 10000 nM	27 nM	6980 nM	> 370
CC[C@@H]1C(=O)N(C)c2cnc(Nc3cc(N4CCN(C)CC4)cc(Cl)c3OCCCO)nc2N1C(C)C	> 333	> 10000 nM	20 nM	> 10000 nM	> 333
CC[C@@H]1C(=O)N(C)c2cnc(Nc3cc(N4CCNCC4)ccc3OCCO)nc2N1C(C)C	> 99	> 10000 nM	101 nM	> 10000 nM	> 99
CC[C@@H]1C(=O)N(C)c2cnc(Nc3cc(N4CCN(C)CC4)cc(Cl)c3OC)nc2N1C1CCCC1	64	325 nM	12 nM	778 nM	27

SMILES	ratio [1]	IC50 [2]	IC50 [3]	IC50 [4]	ratio [5]
CC[C@@H]1C(=O)N(C)c2cnc(Nc3cc(N4CCN(C)CC4)cc(F)c3OCCO)nc2N1C(C)C	> 330	> 10000 nM	30 nM	> 10000 nM	> 330
CC[C@@H]1C(=O)N(C)c2cnc(Nc3cc(N4CCC(NC(=O)OC(C)(C)C)CC4)ccc3OC)nc2N1C1CCCC1	43	3370 nM	152 nM	6450 nM	22
CC[C@@H]1C(=O)N(C)c2cnc(Nc3cc(N4CCN(C)CC4)ccc3OCCO)nc2N1C1CCCC1	245	> 10100 nM	27 nM	5670 nM	> 450
CC[C@@H]1C(=O)N(C)c2cnc(Nc3cc(N4CCC(N)CC4)ccc3OCCCO)nc2N1C1CCCC1	192	> 10000 nM	31 nM	6010 nM	> 319
CC[C@@H]1C(=O)N(C)c2cnc(Nc3cc(N4CCN(C)CC4)cc(F)c3OC)nc2N1C(C)C	322	6600 nM	16 nM	5160 nM	412
CC[C@@H]1C(=O)N(C)c2cnc(Nc3cc(N4CCN(C)CC4)cc(F)c3OC)nc2N1C1CCCC1	108	459 nM	11 nM	1180 nM	42
CC[C@@H]1C(=O)N(C)c2cnc(Nc3cc(N4CCN(C)CC4)ccc3OC)nc2N1C1CCCC1	30	255 nM	21 nM	635 nM	12
CC[C@@H]1C(=O)N(C)c2cnc(Nc3cc(N4CCC(N)CC4)ccc3OCCO)nc2N1C1CCCC1	> 292	> 10000 nM	34 nM	> 10000 nM	> 292
CC[C@@H]1C(=O)N(C)c2cnc(Nc3cc(N4CCC(N)CC4)ccc3OC)nc2N1C1CCCC1	32	505 nM	29 nM	926 nM	17
CC[C@@H]1C(=O)N(C)c2cnc(Nc3cc(N4CCN(C)CC4)cc(Cl)c3OCCO)nc2N1C(C)C	> 208	> 10000 nM	48 nM	> 10000 nM	> 208
CC[C@@H]1C(=O)N(C)c2cnc(Nc3cc(N4CCN(C)CC4)cc(F)c3OCCCO)nc2N1C1CCNC1 (some centres not stated)			7460 nM		
CC[C@@H]1C(=O)N(C)c2cnc(Nc3cc(N4CCN(CC)CC4)ccc3OCCO)nc2N1C(C)C	> 135	> 10000 nM	74 nM	> 10000 nM	> 135
CC[C@@H]1C(=O)N(C)c2cnc(Nc3cc(N(C)CCN(C)C)cc(F)c3OC)nc2N1C1CCCC1	48	422 nM	13 nM	625 nM	32
CC[C@@H]1C(=O)N(C)c2cnc(Nc3cc(N4CCC(NC(=O)OC(C)(C)C)CC4)ccc3OCCCO)nc2N1C1CCCC1	> 104	> 10000 nM	97 nM	> 10000 nM	> 104
CC[C@@H]1C(=O)N(C)c2cnc(Nc3cc(N4CCN(C)CC4)ccc3OCCCO)nc2N1C(C)C	> 300	> 10000 nM	22 nM	> 10000 nM	> 300
CC[C@@H]1C(=O)N(C)c2cnc(Nc3cc(N4CCNCC4)ccc3OCCO)nc2N1C1CCCC1	150	> 10100 nM	39 nM	5830 nM	> 256
CC[C@@H]1C(=O)N(C)c2cnc(Nc3cc(N4CCN(CC)CC4)ccc3OCCCO)nc2N1C1CCCC1	175	> 10000 nM	26 nM	4910 nM	> 357
